Biological target: eIF3e (Homo sapiens, UniProt P60228)
Assay: isothermal dose-response fingerprint CETSA, western blot
Format: biochemical
Settings: MCF7-SIX1 lysate, 10 min at room temperature with compound, heated at 53 °C for 3 min; pH 7.5 Tris, 100 mM NaCl, 1 mM DTT

eIF3e, sequence (P60228 2-445): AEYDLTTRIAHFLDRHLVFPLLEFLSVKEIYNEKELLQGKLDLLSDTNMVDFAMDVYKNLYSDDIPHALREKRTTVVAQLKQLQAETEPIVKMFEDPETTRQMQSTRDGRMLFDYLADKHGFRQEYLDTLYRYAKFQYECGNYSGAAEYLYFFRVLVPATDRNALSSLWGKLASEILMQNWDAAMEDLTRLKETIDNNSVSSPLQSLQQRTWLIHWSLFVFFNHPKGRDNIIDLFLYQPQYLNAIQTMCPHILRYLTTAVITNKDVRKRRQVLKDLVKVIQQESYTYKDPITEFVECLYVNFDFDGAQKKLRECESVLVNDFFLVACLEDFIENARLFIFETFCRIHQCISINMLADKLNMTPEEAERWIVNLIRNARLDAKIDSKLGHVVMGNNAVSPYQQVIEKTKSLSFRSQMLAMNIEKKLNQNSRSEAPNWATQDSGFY

EC50: 13.6 µM
Structure (SMILES): COc1ccc(NC(=O)c2cccc(-n3cccc3)c2)cc1S(=O)(=O)N1CCOCC1 [compound 8430, NCGC00378430]
